The source of these data is US5773459A, “Urea- and thiourea-type compounds” (Sugen, Inc., priority 1995, dated 1998).

The target of the test is T1, FLK-1 receptor (Mus musculus, UniProt P35918).
T1 construct: expressed in transfected cells; host or cells: NIH3T3 C7#3 (FLK-1 infected cells)
Put plainly: ELISA Assay to Measure Kinase Activity of FLK-1 Receptor in FLK-1/NIH Cells. The format is cell-based, murine. The note with it: cellular, VEGF stimulated; read-out: ELISA DATA: FLK-1 - (Cell.). From the text: For purposes of this application, although the nomenclature of the human and murine counterparts of the generic "flk-l" receptor differ, they are, in many respects, interchangeable. The murine receptor, FLK1, and its human counterpart, KDR, share a sequence homology of 93.4% within the intracellular domain. Likewise, murine FLK-1 binds human VEGF with the same affinity as mouse VEGF, and accordingly, is activated by the ligand derived from either species. Millauer et al., 1993, Cell 72:835-846; Quinn et al., 1993, Proc. Natl. Acad. Sci. USA 90:7533-7537. FLK-1 also associates with and subsequently tyrosine phosphorylates human RTK substrates (e.g., PLC-γ or p85) when coexpressed in 293 cells (human embryonal kidney fibroblasts).
Models which rely upon the FLK-1 receptor therefore are directly applicable to understanding the KDR receptor. For example, use of the murine FLK-1 receptor in methods to identify compounds which regulate the signal transduction pathway are directly applicable to the identification of compounds which may be used to regulate the human signal transduction pathway, and more specifically, activity related to the KDR receptor. Chemical compounds identified as inhibitors of KDR/FLK-1 in vitro, will be confirmed in suitable in vivo models.
ELISA Assay to Measure Kinase Activity of FLK-1 Receptor in FLK-1/NIH Cells […]

T1 sequence (P35918 20-1345): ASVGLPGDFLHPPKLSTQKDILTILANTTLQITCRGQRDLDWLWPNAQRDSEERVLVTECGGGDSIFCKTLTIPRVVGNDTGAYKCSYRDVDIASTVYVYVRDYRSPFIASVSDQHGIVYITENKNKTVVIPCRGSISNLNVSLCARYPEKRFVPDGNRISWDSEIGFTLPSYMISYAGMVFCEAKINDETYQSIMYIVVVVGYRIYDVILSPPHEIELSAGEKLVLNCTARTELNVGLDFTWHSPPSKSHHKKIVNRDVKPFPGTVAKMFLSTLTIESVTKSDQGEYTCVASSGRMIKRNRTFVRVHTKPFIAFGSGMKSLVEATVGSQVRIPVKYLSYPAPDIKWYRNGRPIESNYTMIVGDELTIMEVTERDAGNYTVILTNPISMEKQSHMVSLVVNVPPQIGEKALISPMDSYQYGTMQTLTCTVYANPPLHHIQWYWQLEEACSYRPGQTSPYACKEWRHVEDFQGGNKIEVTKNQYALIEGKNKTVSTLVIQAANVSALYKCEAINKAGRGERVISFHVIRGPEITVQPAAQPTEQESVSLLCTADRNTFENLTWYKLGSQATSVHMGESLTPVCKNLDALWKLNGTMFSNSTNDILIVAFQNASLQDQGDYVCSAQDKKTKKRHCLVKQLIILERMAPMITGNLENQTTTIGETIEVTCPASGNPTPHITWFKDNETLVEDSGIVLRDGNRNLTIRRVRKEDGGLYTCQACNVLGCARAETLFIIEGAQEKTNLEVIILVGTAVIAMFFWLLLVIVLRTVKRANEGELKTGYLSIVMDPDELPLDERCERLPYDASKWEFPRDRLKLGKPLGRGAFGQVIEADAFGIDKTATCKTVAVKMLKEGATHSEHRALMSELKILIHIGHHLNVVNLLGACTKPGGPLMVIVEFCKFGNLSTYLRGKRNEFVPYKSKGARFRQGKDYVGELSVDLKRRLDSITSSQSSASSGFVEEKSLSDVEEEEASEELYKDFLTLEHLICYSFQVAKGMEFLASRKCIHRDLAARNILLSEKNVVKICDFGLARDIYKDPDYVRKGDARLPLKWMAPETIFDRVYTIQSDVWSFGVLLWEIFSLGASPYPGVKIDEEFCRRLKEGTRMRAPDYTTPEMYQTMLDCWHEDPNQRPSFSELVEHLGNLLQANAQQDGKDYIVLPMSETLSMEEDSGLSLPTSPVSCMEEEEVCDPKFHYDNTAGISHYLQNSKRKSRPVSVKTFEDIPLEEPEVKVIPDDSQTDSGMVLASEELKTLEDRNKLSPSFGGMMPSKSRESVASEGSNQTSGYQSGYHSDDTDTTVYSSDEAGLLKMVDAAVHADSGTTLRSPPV

For the compound `CC(C)S(=O)(=O)c1csc(NC(=O)Nc2ccc(C(C)(C)C)cc2)c1Cl` [Example Z1, N-[3-Chloro-4-(isopropylsulfonyl)thien-2-yl]-N'-(4-t-butylphenyl)urea], the IC50 was 1 µM.

Turning to `CC(C)S(=O)(=O)c1csc(NC(=O)Nc2cc(C(F)(F)F)cc(C(F)(F)F)c2)c1Cl` [Example Z2, N-[3-Chloro-4-(isopropylsulfonyl)thien-2-yl]-N'-(3,5-di-trifluoromethylphenyl)urea], the IC50 is above 100 µM.
